This note sets out measurements from patent US20120003303A1, “ORAL ENTERIC ANTIDEPRESSANT FORMULATION” (CeNeRx Biopharma, Inc, priority 2009, published 2012).

Read-outs that look alike come from different tables or passages of the source.

One data set addresses T1, MAO-B (Homo sapiens, UniProt P27338).
T1 sequence (P27338 1-520): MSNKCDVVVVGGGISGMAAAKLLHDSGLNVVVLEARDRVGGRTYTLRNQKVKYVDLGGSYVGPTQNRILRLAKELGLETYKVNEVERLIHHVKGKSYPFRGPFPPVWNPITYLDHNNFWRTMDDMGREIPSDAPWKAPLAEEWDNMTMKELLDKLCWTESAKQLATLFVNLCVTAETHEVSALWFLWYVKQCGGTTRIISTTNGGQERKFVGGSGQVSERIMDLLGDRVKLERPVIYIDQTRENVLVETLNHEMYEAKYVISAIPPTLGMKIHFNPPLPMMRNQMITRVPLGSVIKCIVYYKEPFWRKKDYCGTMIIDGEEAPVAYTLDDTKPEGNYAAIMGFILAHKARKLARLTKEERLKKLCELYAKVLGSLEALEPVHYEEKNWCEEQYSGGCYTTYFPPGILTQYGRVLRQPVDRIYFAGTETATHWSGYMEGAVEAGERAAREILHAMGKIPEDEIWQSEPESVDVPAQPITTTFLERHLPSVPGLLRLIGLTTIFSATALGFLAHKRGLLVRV
The data set is described as follows: inhibitory action on MAO-B (statement, no method given). The format is biochemical.

The nature of data set [1]: human plasma pharmacokinetics of orally administered tyramine. The format is in vivo. The text has this: Such pharmaceutical formulations are manufactured in such a way that the product passes unchanged through the stomach of the patient, and dissolves and releases the active ingredient when it leaves the stomach and enters the middle and lower portions of the small intestine. Such formulations can be in tablet or pellet form, where the active ingredient is in the inner part of the tablet or pellet and is enclosed in a film or envelope, the “enteric coating,” which is insoluble in acid environments, such as the stomach, but is soluble in near-neutral environments such as the small intestine.

Take `O=S1(=O)c2ccc(F)cc2Oc2cc(OCC(F)(F)F)ccc21` [CX157, 3-fluoro-7-(2,2,2-trifluoroethoxy)phenoxathiin 10,10-dioxide]: on MAO-B, the “inhibitory actions on MAO-B” value is on record as “devoid of inhibitory actions on MAO-B”.

Broadly, the Tmax is the time from dosing to the highest level. As to `NCCc1ccc(O)cc1` [tyramine], the “time after dosing at which non-detectable levels observed” value in data set [1] (human plasma, tyramine with food in a capsule, oral dose of 200 mg) fell in the range of 3 to 4 h. The Tmax in data set [1] (human plasma, tyramine with food in a capsule, oral dose of 200 mg, read-out: Tmax) is not above 1.25 h; in data set [1] (human, plasma, oral, 200 mg, dietary tyramine, absorbed and metabolized in stomach, upper small intestine and liver, read-out: average Tmax) it was 1.25 h.
